Data set [1] is described as follows: Partition coefficient, log P of the compound. In kind it is physicochemical. The conditions noted are these: octanol/water.
The nature of data set [2]: Lipophilicity, log D of the compound at pH 7.4. The conditions noted are these: buffer. It is filed as physicochemical.

Molecules are shown by their SMILES. A value given as a limit tells only on which side of the number the result lay.

In the case of `Cc1ccc(-n2nc(C(C)(C)C)cc2NC(=O)Nc2ccc(-n3nnnc3C)cc2)cc1`, the logP in data set [1] (read-out: logP) stood at 3.86. The logD in data set [2] (read-out: logD) was 3.81.
Turning to `Cc1ccc(-n2nc(C(C)(C)C)cc2NC(=O)Nc2ccc(-c3nnc(S)n3C)cc2)cc1`, the logP in data set [1] is listed as 2.86. In data set [2], this molecule yielded a pH-dependent lipophilicity (logD) of 3.89.
On to `Cc1ccc(-n2nc(C(C)(C)C)cc2NC(=O)Nc2ccc(-n3ccnc3)cc2)cc1`, for which, in data set [1] (read-out: logP), the logP is 4.35. Further, the logD in data set [2] (read-out: logD) is 3.85.
Turning to `Cc1ccc(-n2nc(C(C)(C)C)cc2NC(=O)Nc2ccc(-c3cnco3)cc2)cc1`, in data set [1] (read-out: logP), the logP worked out at 4.96. For the same molecule, the logD in data set [2] (read-out: logD) is 4.49.
On to `Cc1ccc(-n2nc(C(C)(C)C)cc2NC(=O)Nc2ccc(-c3ccc(N)nc3)cc2)cc1`, for which the logP in data set [1] (read-out: logP) was found to be 5.13. The log distribution coefficient (logD) in data set [2] (read-out: logD) is 3.88.
As to `Cc1ccc(-n2nc(C(C)(C)C)cc2NC(=O)Nc2ccc(-c3cccnc3)cc2)cc1`, in data set [1] (read-out: logP), the log partition coefficient (logP) amounted to 4.84. Moreover, the logD in data set [2] (read-out: logD) came to 4.25.
Take `Cc1ccc(-n2nc(C(C)(C)C)cc2NC(=O)Nc2ccc(-n3cnnc3)cc2)cc1`: the log partition coefficient (logP) in data set [1] (read-out: logP) came out at 4.07. In data set [2] (read-out: logD), the pH-dependent lipophilicity (logD) amounted to 3.94.
The matching figures for `Cc1ccc(-n2nc(C(C)(C)C)cc2NC(=O)Nc2ccc(-c3csnn3)cc2)cc1`: 5.15 and 4.58.
On the same counts, the results for `Cc1ccc(-n2nc(C(C)(C)C)cc2NC(=O)Nc2ccc(-n3cnc4c(N)ncnc43)cc2)cc1` are 3.98 and 4.05.
Consider `COc1cc(OC)nc(-c2ccc(NC(=O)Nc3cc(C(C)(C)C)nn3-c3ccc(C)cc3)cc2)n1`, for which, in data set [1] (read-out: logP), the log partition coefficient (logP) was above 5.4. In data set [2] (read-out: logD), the pH-dependent lipophilicity (logD) is 3.94.
Consider `Cc1ccc(-n2nc(C(C)(C)C)cc2NC(=O)Nc2ccc(-c3ccc(OCc4ccccc4)nc3)cc2)cc1`, for which the logP in data set [1] (read-out: logP) was above 5.4. Besides, the logD in data set [2] (read-out: logD) is 3.94.
As for `Cc1ccc(-n2nc(C(C)(C)C)cc2NC(=O)Nc2ccc(-n3cnnn3)cc2)cc1`, the logP in data set [1] (read-out: logP) worked out at 4.14. The logD in data set [2] (read-out: logD) turned out to be 3.79.
Take `Cc1ccc(-n2nc(C(C)(C)C)cc2NC(=O)Nc2ccc(-c3nncn3C)cc2)cc1`: in data set [1] (read-out: logP), the logP turned out to be 3.34. Moreover, in data set [2] (read-out: logD), the pH-dependent lipophilicity (logD) came to 3.21.
For `Cc1ccc(-n2nc(C(C)(C)C)cc2NC(=O)Nc2ccc(-c3ccncc3)cc2)cc1`, the logP in data set [1] (read-out: logP) is above 5. The logD in data set [2] (read-out: logD) was 3.58.
For the molecule `Cc1ccc(-n2nc(C(C)(C)C)cc2NC(=O)Nc2ccc(-n3cncc3C)cc2)cc1`, the logP in data set [1] (read-out: logP) came to 4.6. The pH-dependent lipophilicity (logD) in data set [2] (read-out: logD) stood at 4.33.
On the same counts, the results for `COc1ccc(-c2ccc(NC(=O)Nc3cc(C(C)(C)C)nn3-c3ccc(C)cc3)cc2)cn1` are 4.25 and 4.02.
Consider `Cc1ccc(-n2nc(C(C)(C)C)cc2NC(=O)Nc2ccc(-n3cnc(C)c3)cc2)cc1`, for which, in data set [1] (read-out: logP), the lipophilicity (logP) was 4.83. Besides, the logD in data set [2] (read-out: logD) was 4.08.
On to `Cc1ccc(-n2nc(C(C)(C)C)cc2NC(=O)Nc2ccc(-n3cnc(Cl)c3Cl)cc2)cc1`, for which, in data set [1] (read-out: logP), the log partition coefficient (logP) was above 5.4. Moreover, the logD in data set [2] (read-out: logD) was 3.96.

One may read the logP as a log measure of how a compound divides between an organic and an aqueous phase. By logD is commonly meant the decadic logarithm of the distribution of all forms, ionised or not, between an organic phase and buffer at a given pH.
